6 compounds from patent US5416073A, “Growth hormone-releasing peptides and method of treating animals, therewith” (The Adminstrators of the Tulane Educational Fund, priority 1985, dated 1995) can be followed below.

Square brackets hold non-standard residues; d marks the D form. Peptide text beside a SMILES is read from it.

The test system of this assay is Growth Hormone Release. In words: Peptide effects on growth hormone release, plasma GH by RIA in anesthetized male rats. As to conditions: 15 min. Format: in vivo, rat. As for the experimental part:
In this evaluation, the procedures described by W. A. Murphy et al., Endocrinology 109:491-495 (1980), were employed.
In growth hormone (GH) experiments, male rats (Charles Rivers) were anesthetized with NEMBUTAL® (6 mg per 100 g body weight) which also served to maintain stimulated plasma GH levels. Exactly 30 minutes after the rats were anesthetized, 0.5 mL of saline or the test peptide in saline was administered as a SC bolus. A 1 mL blood sample was drawn from the jugular vein 15 minutes after the injection of the peptide in saline. GH levels were determined using NIADDKD rat GH RIA components.

Turning to `CCCC[C@H](NC(=O)[C@@H](NC(=O)[C@H](CC(=O)O)NC(=O)[C@H](CCC(N)=O)NC(=O)[C@H](CC(C)C)NC(=O)[C@H](CC(C)C)NC(=O)[C@H](CCCCN)NC(=O)[C@H](CCCNC(=N)N)NC(=O)[C@H](C)NC(=O)[C@H](CO)NC(=O)[C@H](CC(C)C)NC(=O)[C@H](CCC(N)=O)NC(=O)CNC(=O)[C@H](CC(C)C)NC(=O)[C@@H](NC(=O)[C@H](CCCCN)NC(=O)[C@H](CCCNC(=N)N)NC(=O)[C@H](Cc1ccc(O)cc1)NC(=O)[C@H](CO)NC(=O)[C@@H](CC(N)=O)NC(=O)[C@@H](NC(=O)[C@H](Cc1ccccc1)NC(=O)[C@@H](NC(=O)[C@H](C)NC(=O)[C@H](CC(=O)O)NC(=O)[C@@H](C)NC(=O)[C@@H](N)Cc1ccc(O)cc1)[C@@H](C)CC)[C@@H](C)O)C(C)C)[C@@H](C)CC)C(=O)N[C@@H](CO)C(=O)N[C@@H](CCCNC(=N)N)C(N)=O` [D-Ala^2 -D-Asn^8 -Nle^27, D-alanine^2, D-asparagine^8, Norleucine^27-human Pancreatic Growth Hormone-Releasing(1-29)-amide], the “Plasma GH” value was determined as 407 ± 53 ng/mL (dose 0.05 ug/100 g BW SC, saline 203 ± 39) and 1613 ± 138 ng/mL (dose 0.5 ug/100 g BW SC, saline 203 ± 39).
Regarding `CCCC[C@H](NC(=O)[C@@H](NC(=O)[C@H](CC(=O)O)NC(=O)[C@H](CCC(N)=O)NC(=O)[C@H](CC(C)C)NC(=O)[C@H](CC(C)C)NC(=O)[C@H](CCCCN)NC(=O)[C@H](CCCNC(=N)N)NC(=O)[C@H](C)NC(=O)[C@H](CO)NC(=O)[C@H](CC(C)C)NC(=O)[C@H](CCC(N)=O)NC(=O)CNC(=O)[C@H](CC(C)C)NC(=O)[C@@H](NC(=O)[C@H](CCCCN)NC(=O)[C@H](CCCNC(=N)N)NC(=O)[C@H](Cc1ccc(O)cc1)NC(=O)[C@H](CO)NC(=O)[C@@H](CC(N)=O)NC(=O)[C@@H](NC(=O)[C@H](Cc1ccccc1)NC(=O)[C@@H](NC(=O)[C@H](C)NC(=O)[C@@H](CC(=O)O)NC(=O)[C@@H](C)NC(=O)[C@@H](N)Cc1ccc(O)cc1)[C@@H](C)CC)[C@@H](C)O)C(C)C)[C@@H](C)CC)C(=O)N[C@@H](CO)C(=O)N[C@@H](CCCNC(=N)N)C(N)=O` [D-Ala^2 -D-Asp^3 -D-Asn^8 -Nle^27, D-alanine^2, D-aspartic acid^3, D-asparagine^8, Norleucine27-human Pancreatic Growth Hormone-Releasing(1-29)-amide], the “Plasma GH” value is, setting by setting: (dose 0.1 ug/100 g BW SC, saline 383 ± 79) 767 ± 146 ng/mL; (dose 1.0 ug/100 g BW SC, saline 383 ± 79) 2419 ± 252 ng/mL.
Take `CCCC[C@H](NC(=O)[C@@H](NC(=O)[C@H](CC(=O)O)NC(=O)[C@H](CCC(N)=O)NC(=O)[C@H](CC(C)C)NC(=O)[C@H](CC(C)C)NC(=O)[C@H](CCCCN)NC(=O)[C@H](CCCNC(=N)N)NC(=O)[C@H](C)NC(=O)[C@H](CO)NC(=O)[C@H](CC(C)C)NC(=O)[C@H](CCC(N)=O)NC(=O)CNC(=O)[C@H](CC(C)C)NC(=O)[C@@H](NC(=O)[C@H](CCCCN)NC(=O)[C@H](CCCNC(=N)N)NC(=O)[C@H](Cc1ccc(O)cc1)NC(=O)[C@H](CO)NC(=O)[C@H](CC(N)=O)NC(=O)[C@@H](NC(=O)[C@H](Cc1ccccc1)NC(=O)[C@@H](NC(=O)[C@H](C)NC(=O)[C@H](CC(=O)O)NC(=O)[C@@H](C)NC(=O)[C@@H](N)Cc1ccc(O)cc1)[C@@H](C)CC)[C@@H](C)O)C(C)C)[C@@H](C)CC)C(=O)N[C@@H](CO)C(=O)N[C@@H](CCCNC(=N)N)C(N)=O` [D-Ala^2 -Nle^27, D-alanine^2, Norleucine^27-human Pancreatic Growth Hormone-Releasing(1-29)-amide]: the “Plasma GH” value stood at 465 ± 75 ng/mL (dose 0.1 ug/100 g BW SC, saline 278 ± 37) and 2287 ± 265 ng/mL (dose 1.0 ug/100 g BW SC, saline 278 ± 37).
With `CC[C@H](C)[C@H](NC(=O)[C@H](C)NC(=O)[C@H](CC(=O)O)NC(=O)[C@H](C)NC(=O)[C@H](Cc1ccc(O)cc1)NC(C)=O)C(=O)N[C@@H](Cc1ccccc1)C(=O)N[C@H](C(=O)N[C@@H](CC(N)=O)C(=O)N[C@@H](CO)C(=O)N[C@@H](Cc1ccc(O)cc1)C(=O)N[C@@H](CCCNC(=N)N)C(=O)N[C@@H](CCCCN)C(=O)N[C@H](C(=O)N[C@@H](CC(C)C)C(=O)NCC(=O)N[C@@H](CCC(N)=O)C(=O)N[C@@H](CC(C)C)C(=O)N[C@@H](CO)C(=O)N[C@@H](C)C(=O)N[C@@H](CCCNC(=N)N)C(=O)N[C@@H](CCCCN)C(=O)N[C@@H](CC(C)C)C(=O)N[C@@H](CC(C)C)C(=O)N[C@@H](CCC(N)=O)C(=O)N[C@@H](CC(=O)O)C(=O)N[C@H](C(=O)N[C@@H](CCSC)C(=O)N[C@@H](CO)C(=O)N[C@@H](CCCNC(=N)N)C(N)=O)[C@@H](C)CC)C(C)C)[C@@H](C)O` [N-Ac-hpGRF(1-29)-NH2, N-acetyl Human Pancreatic Growth Hormone-Releasing Factor(1-29)-Amide], the “Plasma GH” value is on record as 2518 ± 598 ng/mL (dose 1.20 μg/100 g BW SC, saline 342 ± 53) and 4899 ± 557 ng/mL (dose 3.0 μg/100 g BW SC, saline 342 ± 53).
`CC[C@H](C)[C@H](NC(=O)[C@H](C)NC(=O)[C@@H](CC(=O)O)NC(=O)[C@@H](C)NC(=O)[C@@H](Cc1ccc(O)cc1)NC(C)=O)C(=O)N[C@@H](Cc1ccccc1)C(=O)N[C@H](C(=O)N[C@@H](CC(N)=O)C(=O)N[C@@H](CO)C(=O)N[C@@H](Cc1ccc(O)cc1)C(=O)N[C@@H](CCCNC(=N)N)C(=O)N[C@@H](CCCCN)C(=O)N[C@H](C(=O)N[C@@H](CC(C)C)C(=O)NCC(=O)N[C@@H](CCC(N)=O)C(=O)N[C@@H](CC(C)C)C(=O)N[C@@H](CO)C(=O)N[C@@H](C)C(=O)N[C@@H](CCCNC(=N)N)C(=O)N[C@@H](CCCCN)C(=O)N[C@@H](CC(C)C)C(=O)N[C@@H](CC(C)C)C(=O)N[C@@H](CCC(N)=O)C(=O)N[C@@H](CC(=O)O)C(=O)N[C@H](C(=O)N[C@@H](CCSC)C(=O)N[C@@H](CO)C(=O)N[C@@H](CCCNC(=N)N)C(N)=O)[C@@H](C)CC)C(C)C)[C@@H](C)O` [N-acetyl-D-tyrosine^1,D-alanine^2,D-aspartic acid^3-human Pancreatic Growth Hormone-Releasing(1-29)-amine]: the “Plasma GH” value runs as follows: (dose 1.0 μg/100 g BW SC, saline 541 ± 78) 1181 ± 164 ng/mL; (dose 5.0 μg/100 g BW SC, saline 541 ± 78) 3594 ± 754 ng/mL.
`CC[C@H](C)[C@H](NC(=O)[C@H](C)NC(=O)[C@H](CC(=O)O)NC(=O)[C@@H](C)NC(=O)[C@@H](N)Cc1ccc(O)cc1)C(=O)N[C@@H](Cc1ccccc1)C(=O)N[C@H](C(=O)N[C@@H](CC(N)=O)C(=O)N[C@@H](CO)C(=O)N[C@@H](Cc1ccc(O)cc1)C(=O)N[C@@H](CCCNC(=N)N)C(=O)N[C@@H](CCCNC(=N)N)C(=O)N[C@H](C(=O)N[C@@H](CC(C)C)C(=O)NCC(=O)N[C@@H](CCC(N)=O)C(=O)N[C@@H](CC(C)C)C(=O)N[C@@H](CO)C(=O)N[C@@H](C)C(=O)N[C@@H](CCCNC(=N)N)C(=O)N[C@@H](CCCNC(=N)N)C(=O)N[C@@H](CC(C)C)C(=O)N[C@@H](CC(C)C)C(=O)N[C@@H](CCC(N)=O)C(=O)N[C@@H](CC(=O)O)C(=O)N[C@H](C(=O)N[C@@H](CCSC)C(=O)N[C@@H](CO)C(=O)N[C@@H](CCCNC(=N)N)C(N)=O)[C@@H](C)CC)C(C)C)[C@@H](C)O` [[D-Ala^2, Arg^12, 21]-hpGRF(1-29)-NH2, D-alanine^2, Arginine^12,21-human Growth Hormone-Releasing (1-29)-amide] (H-Y[dA]DAIFTNSYRRVLGQLSARRLLQDIMSR-NH2): the “Plasma GH” value by setting is: (dose 0.4 μ/100 g BW SC, saline 309 ± 20) 755 ± 131 ng/mL; (dose 1.0 μ/100 g BW SC, saline 309 ± 20) 1752 ± 289 ng/mL.
